Assay results as given in PubChem BioAssay (NCI).
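Values below derive from 48-hour exposures of cells grown in 96-well plates, with endpoints linearly interpolated between the two concentrations bracketing the appropriate inhibition level. TGI: concentration producing complete growth inhibition.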

What was measured:
Assay in all cases: growth of human tumour cells (NCI), 48 h
[1] = system: SNB-78 CNS
[2] = system: COLO 205 colon
[3] = system: HL-60(TB) leukemia
[4] = system: U251 CNS
[5] = system: IGROV1 ovarian
[6] = system: SNB-19 CNS
[7] = system: M19-MEL melanoma
[8] = system: KM20L2 colon
[9] = system: M14 melanoma
[10] = system: NCI-H23 lung
[11] = system: UACC-62 melanoma
[12] = system: SF-295 CNS
[13] = system: HCT-15 colon
[14] = system: SR leukemia
[15] = system: SK-MEL-2 melanoma
[16] = system: TK-10 renal
[17] = system: OVCAR-8 ovarian
[18] = system: OVCAR-5 ovarian
[19] = system: DLD-1 colon
[20] = system: NCI-H226 lung
[21] = system: RXF 393 renal
[22] = system: CCRF-CEM leukemia
[23] = system: KM12 colon
[24] = system: RPMI-8226 leukemia
[25] = system: HT29 colon
[26] = system: LOX IMVI melanoma
[27] = system: SK-OV-3 ovarian
[28] = system: 786-0 renal
[29] = system: DMS 114 small cell lung
[30] = system: HCC-2998 colon
[31] = system: MOLT-4 leukemia
[32] = system: SF-268 CNS
[33] = system: OVCAR-3 ovarian
[34] = system: A549 NSCLC
[35] = system: MALME-3M melanoma
[36] = system: A498 renal
[37] = system: UACC-257 melanoma
[38] = system: SN12C renal
[39] = system: NCI-H522 lung
[40] = system: NCI-H460 lung
[41] = system: K-562 leukemia
[42] = system: HOP-92 NSCLC
[43] = system: SK-MEL-5 melanoma
[44] = system: CAKI-1 renal
[45] = system: HOP-18 NSCLC
[46] = system: SK-MEL-28 melanoma
[47] = system: LXFL 529 NSCLC
[48] = system: HCT-116 colon
[49] = system: UO-31 renal
[50] = system: SF-539 CNS
[51] = system: SNB-75 CNS
[52] = system: HOP-62 NSCLC
[53] = system: EKVX NSCLC
[54] = system: SW-620 colon
[55] = system: ACHN renal
[56] = system: OVCAR-4 ovarian
[57] = system: XF 498 CNS
[58] = system: DMS 273 small cell lung
[59] = system: HS 578T breast
[60] = system: MCF7 breast
[61] = system: DU-145 prostate
[62] = system: T-47D breast
[63] = system: MDA-MB-435
[64] = system: MDA-MB-231 breast
[65] = system: NCI/ADR-RES ovarian
[66] = system: BT-549 breast
[67] = system: MDA-N
[68] = system: PC-3 prostate

`CCCC/C(C)=N/NC(N)=S` was tested, and the TGI [1] was over 100 µM, the TGI [2] was over 100 µM and the TGI [3] was over 100 µM. The TGI [4] was over 100 µM, the TGI [5] was over 100 µM and the TGI [6] was over 100 µM. The TGI [7] was over 100 µM, the TGI [8] was over 100 µM and the TGI [9] was over 100 µM. For the same molecule, the TGI [10] was over 100 µM, the TGI [11] was over 100 µM and the TGI [12] was over 100 µM. For the same molecule, the TGI [13] was over 100 µM, the TGI [14] was over 100 µM and the TGI [15] was over 100 µM. The TGI [16] was over 100 µM, the TGI [17] was over 100 µM and the TGI [18] was over 100 µM. It also gave a TGI [19] of over 100 µM, a TGI [20] of over 100 µM and a TGI [21] of over 100 µM. For the same molecule, the TGI [22] was over 100 µM, the TGI [23] was over 100 µM and the TGI [24] was over 100 µM. It also gave a TGI [25] of over 100 µM, a TGI [26] of over 100 µM and a TGI [27] of over 100 µM. It also gave a TGI [28] of over 100 µM, a TGI [29] of over 100 µM and a TGI [30] of over 100 µM. The TGI [31] was over 100 µM, the TGI [32] was over 100 µM and the TGI [33] was over 100 µM. For the same molecule, the TGI [34] was over 100 µM, the TGI [35] was over 100 µM and the TGI [36] was over 100 µM. It also gave a TGI [37] of over 100 µM, a TGI [38] of over 100 µM and a TGI [39] of over 100 µM. It also gave a TGI [40] of over 100 µM, a TGI [41] of over 100 µM and a TGI [42] of over 100 µM. It also gave a TGI [43] of over 100 µM, a TGI [44] of over 100 µM and a TGI [45] of over 100 µM. For the same molecule, the TGI [46] was over 100 µM, the TGI [47] was over 100 µM and the TGI [48] was over 100 µM. For the same molecule, the TGI [49] was over 100 µM, the TGI [50] was over 100 µM and the TGI [51] was over 100 µM. For the same molecule, the TGI [52] was over 100 µM, the TGI [53] was over 100 µM and the TGI [54] was over 100 µM. The TGI [55] was over 100 µM.

In the case of `CC(C)c1cc2c(O)c(c1)Cc1cc(C(C)C)cc(c1O)Cc1cc(C(C)C)cc(c1O)Cc1cc(C(C)C)cc(c1O)Cc1cc(C(C)C)cc(c1O)Cc1cc(C(C)C)cc(c1O)C2`, the TGI [1] is reported as over 100 µM, the TGI [2] is reported as over 100 µM and the TGI [3] is reported as over 100 µM. The TGI [4] was over 100 µM, the TGI [5] was over 100 µM and the TGI [6] was over 100 µM. The TGI [7] was over 100 µM, the TGI [8] was over 100 µM and the TGI [9] was over 100 µM. The TGI [10] was over 100 µM, the TGI [11] was over 100 µM and the TGI [12] was over 100 µM. For the same molecule, the TGI [13] was over 100 µM, the TGI [15] was over 100 µM and the TGI [16] was over 100 µM. For the same molecule, the TGI [17] was over 100 µM, the TGI [18] was over 100 µM and the TGI [19] was over 100 µM. The TGI [21] was over 100 µM, the TGI [22] was over 100 µM and the TGI [23] was over 100 µM. The TGI [24] was over 100 µM, the TGI [25] was over 100 µM and the TGI [56] was over 100 µM. The TGI [28] was over 100 µM, the TGI [29] was over 100 µM and the TGI [30] was over 100 µM. It also gave a TGI [31] of over 100 µM, a TGI [32] of over 100 µM and a TGI [33] of over 100 µM. It also gave a TGI [34] of over 100 µM, a TGI [35] of over 100 µM and a TGI [37] of over 100 µM. For the same molecule, the TGI [38] was over 100 µM, the TGI [39] was over 100 µM and the TGI [40] was over 100 µM. It also gave a TGI [41] of over 100 µM, a TGI [42] of over 100 µM and a TGI [43] of over 100 µM. For the same molecule, the TGI [57] was over 100 µM, the TGI [46] was over 100 µM and the TGI [47] was over 100 µM. It also gave a TGI [48] of over 100 µM, a TGI [58] of over 100 µM and a TGI [49] of over 100 µM. For the same molecule, the TGI [50] was over 100 µM, the TGI [51] was over 100 µM and the TGI [52] was over 100 µM. For the same molecule, the TGI [53] was over 100 µM, the TGI [54] was over 100 µM and the TGI [55] was over 100 µM.

`Cc1nc(-c2ccc(Cl)cc2)cn2c1nc1ccccc12` was tested, and the TGI [2] was over 100 µM, the TGI [3] was over 31.6 µM and the TGI [4] was over 100 µM. The TGI [5] was over 100 µM, the TGI [6] was over 100 µM and the TGI [9] was over 100 µM. For the same molecule, the TGI [10] was over 100 µM, the TGI [11] was over 100 µM and the TGI [12] was over 100 µM. It also gave a TGI [13] of over 100 µM, a TGI [14] of over 100 µM and a TGI [59] of over 100 µM. For the same molecule, the TGI [60] was over 100 µM, the TGI [15] was over 100 µM and the TGI [16] was over 100 µM. The TGI [17] was over 100 µM, the TGI [18] was over 100 µM and the TGI [20] was over 100 µM. For the same molecule, the TGI [21] was over 100 µM, the TGI [61] was over 100 µM and the TGI [62] was over 21.4 µM. For the same molecule, the TGI [22] was over 31.6 µM, the TGI [23] was over 100 µM and the TGI [24] was over 100 µM. The TGI [25] was over 100 µM, the TGI [56] was over 100 µM and the TGI [63] was over 100 µM. For the same molecule, the TGI [26] was over 100 µM, the TGI [27] was over 100 µM and the TGI [28] was over 100 µM. It also gave a TGI [64] of over 100 µM, a TGI [30] of over 100 µM and a TGI [31] of over 100 µM. For the same molecule, the TGI [32] was over 100 µM, the TGI [65] was over 100 µM and the TGI [33] was over 100 µM. The TGI [34] was over 100 µM, the TGI [35] was over 100 µM and the TGI [36] was over 100 µM. The TGI [37] was over 100 µM, the TGI [66] was over 100 µM and the TGI [38] was over 100 µM. The TGI [39] was over 100 µM, the TGI [67] was over 100 µM and the TGI [40] was over 100 µM. It also gave a TGI [41] of over 100 µM, a TGI [42] of over 100 µM and a TGI [43] of over 100 µM. For the same molecule, the TGI [44] was over 100 µM, the TGI [46] was over 100 µM and the TGI [48] was over 100 µM. It also gave a TGI [49] of over 100 µM, a TGI [50] of over 100 µM and a TGI [51] of over 100 µM. It also gave a TGI [52] of over 100 µM, a TGI [53] of over 100 µM and a TGI [68] of over 100 µM. The TGI [54] was over 100 µM and the TGI [55] was over 100 µM.
